From US20230272368A1, “PRODUCTS AND METHODS FOR DETECTION OF VIRAL NUCLEIC ACID” (priority 2020, published 2023) come the findings set out here.

The conditions of this series: compared with sodium dodecyl sulfate (SDS).

In the case of sodium lauroyl sarcosinate [SLS], the “solubility in the compositions” value was “detergent to be substantially more soluble in our”.
